Patent US20200289605A1, “COMPOSITION FOR IMPROVING OR PREVENTING NONALCOHOLIC FATTY LIVER” (KOHJIN LIFE SCIENCES CO., LTD., priority 2015, published 2020)

Legend:
[1] = system: Mice (C57/B6J) fed with high-fat food
Excerpt: Mice (C57/B6J, 8 weeks old male) were divided into 4 groups (5 animals each), and the first group (DB) was freely fed with ordinary food (Certified Diet “MF” manufactured by Oriental Yeast Co., ltd.). The second group (HFD) was freely fed with high-fat food (High Fat Diet 32, manufactured by CLEA Japan, Inc.), […].
When the mouse was 20 weeks old, the body weight, the liver weight, the serum aspartate aminotransferase (AST), the alanine aminotransferase (ALT), the serum triglyceride (TG), the free fatty acid value (FFA) and the total cholesterol value (T-cho) were measured.

[2] = system: subjects who had NAFLD in 31 IU/L or more of ALT
[3] = HFD6 and HFD60 groups in comparison to the HFD group, 20 weeks old
[4] = high-fat food mice, glutathione 6 or 60 mg/kg/day in water, 20 weeks old

N[C@@H](CCC(=O)N[C@@H](CS)C(=O)NCC(=O)O)C(=O)O [glutathione]
FFA (free fatty acid value) [1, 3]: significant decrease | T-cho (total cholesterol value) [1, 3]: significant decrease | TG (triglyceride value) [1, 3]: significant decrease | serum ALT [1, 3]: significant decrease | serum AST [1, 3]: significant decrease | deposition of fat on the liver by high-fat food ([1]; high-fat food mice, glutathione 6 or 60 mg/kg/day in water): suppressed | liver weight [1, 4]: decreased dependently on the concentration | ratio of liver weight/body weight [1, 4]: decrease of the body weight ratio was also recognized | Effect of the present invention (ALT criterion) ([2]; Case IDs 10 to 16, 300 mg per day oral): not affected | FibroScan (after treatment) CAP ([2]; after treatment, oral glutathione 300 mg per day, one value per subject (Case ID)): 280 dBe
